# Experiment: Fluorescence properties of the new compounds (excitation and emission wavelengths)
# Format: physicochemical
# Details: not given
Structure (SMILES),Fluorescence Excitation (nm),Fluorescence emission (nm)
"CC(O)C(COP(=O)(O)OC(C)C(CO)NC(=O)c1cc(-c2ccccc2)nc2ccccc12)NC(=O)c1c2ccccc2nc2c1[nH]c1ccccc12 (stereo not shown) [Example 37, O-{2-N-(2-phenylquinoline-4-carbamoyl-1-hydroxybutan-3-yl)} and O-(2-N-{10H-indolo[3,2-d]quinoline-11-carbamoyl}-3-hydroxybut-1-yl)]",342 nm,492 nm

# Same assay, conditions: free compound
Structure (SMILES),Fluorescence Excitation (nm),Fluorescence emission (nm)
"CC(O)C(COP(=O)(O)OC(C)C(CO)NC(=O)c1cc(-c2ccccc2)nc2ccccc12)NC(=O)c1cc(-c2ccccc2)nc2ccccc12 (stereo not shown) [Example 35, O-{2-N-(2-phenylquinoline-4-carbamoyl-1-hydroxybutan-3-yl)} and O-{2-N-(2-phenylquinoline-4-carbamoyl-3-hydroxybutan-1-yl)} phosphate]",330 nm,395 nm
"CC(O)C(COP(=O)(O)OC(C)C(CO)NC(=O)c1c2ccccc2nc2ccccc12)NC(=O)c1cc(-c2ccccc2)nc2ccccc12 (stereo not shown) [Example 36, O-{2-N-(acridine-9-carbamoyl)-1-hydroxybut-3-yl} and O-{2-N-(2-phenylquinoline-4-carbamoyl-3-hydroxybutan-1-yl)} phosphate]",252 nm,403 nm
"CC(O)C(COP(=O)(O)OC(C)C(COP(=O)(O)OC(C)C(CO)NC(=O)c1c2ccccc2nc2ccccc12)NC(=O)c1c2ccccc2nc2c1[nH]c1ccccc12)NC(=O)CNC(=O)c1c2ccccc2nc2ccccc12 (stereo not shown) [Example 38, O-{2-N-(Acridine-9-carbamoyl)-(1-hydroxybut-3-yl)} phosphate (3-1) O-{2-N-(10H-indolo[3,2-d]quinoline-11-carbamoyl)-3-oxybut-1-yl} phosphate (3-1) O-{2-N-(acridine-9-carboxamido)acetamidol-(3-hydroxybut-1-yl)}]",359 nm,438 nm
"CC(OP(=O)(O)OCC(O)CNc1c2nc3ccccc3c-2n(C)c2ccccc12)C(CO)NC(=O)c1c2ccccc2nc2c1[nH]c1ccccc12 [Example 41, O-{2-N-(10H-indolo[3,2-d]quinoline-11-carbamoyl)-3-oxybut-1-yl} phosphate (3-1) O-{3-(5-methyl-5H-indolo[3,2-b]quinolin-11-ylamino-(S)-(2hydroxylprop-3-yl)]",275 nm,476 nm
"CC(O)C(COP(=O)(O)OC(C)C(COP(=O)(O)OC(C)C(CO)NC(=O)c1c2ccccc2nc2ccccc12)NC(=O)c1c2ccccc2nc2ccccc12)NC(=O)c1c2ccccc2nc2ccccc12 (stereo not shown) [Example 43, O-{2-N-(Acridine-9-carbamoyl)-(1-hydroxybut-3-yl)} phosphate (3-1) O-{2-N-(acridine-9-carbamoyl)-(1-hydroxybut-3-yl)} phosphate (3-1) O-{2-N-(acridine-9-carbamoyl)-(3-hydroxybut-1-yl)}]",360 nm,440 nm
"CC(O)C(COP(=O)(O)OC(C)C(COP(=O)(O)OC(C)C(CO)NC(=O)c1c2ccccc2nc2ccccc12)NC(=O)c1c2ccccc2nc2c1[nH]c1ccccc12)NC(=O)Cn1c2nc3ccccc3c-2cc2ccccc21 (stereo not shown) [Example 45, O-{2-N-(Acridine-9-carbamoyl)-(1-hydroxybut-3-yl)} phosphate (3-1) O-{2-N-(10H-indolo[3,2-d]quinoline-11-carbamoyl)-3-oxybut-1-yl} phosphate (3-1) O-{2-N-(5H-indolo[2,3-b]quinolin-5-yl)acetamido-3-hydroxybut-1-yl)]",271 nm,449 nm
CC(=O)NCCN(CC(=O)NCCN(CC(=O)NCCCCCCO)C(=O)CNC(=O)c1c2ccccc2nc2ccccc12)C(=O)CNC(=O)c1c2ccccc2nc2ccccc12 [Example 46],248 nm,441 nm
CC(=O)NCCN(CC(=O)NCCN(CC(=O)NCCN(CC(=O)NCCCCCCO)C(=O)CNC(=O)c1c2ccccc2nc2ccccc12)C(=O)CNC(=O)c1c2ccccc2nc2ccccc12)C(=O)CNC(=O)c1c2ccccc2nc2ccccc12 [Example 47],360 nm,436 nm
"CC(=O)NC1CC(C(N)=O)N(C(=O)CNC(=O)c2c3ccccc3nc3ccccc23)C1 (stereo not shown) [Example 50, N-[2-(Acridine-9-carboxamide)acetyl]-4-N-acetamidoprolinamide]",282 nm,439 nm
"CC(=O)NC1CC(C(N)=O)N(C(=O)CNC(=O)c2c3ccccc3nc3c2[nH]c2ccccc23)C1 (stereo not shown) [Example 51, N-{2-(10H-indolo[3,2-b]quinoline-11-carboxamide)acetyl}-4-N-acetamidoprolinamide]",347 nm,502 nm
"CC(=O)N1CC(NC(=O)CNC(=O)c2c3ccccc3nc3ccccc23)C[C@H]1C(=O)N1CC(NC(=O)CNC(=O)c2c3ccccc3nc3ccccc23)C[C@H]1C(N)=O (stereo partly shown) [Example 52, N^4-Acetyl-4-amino-{2-(acridine-9-carboxamide)acetyl}prolinyl-4-amino-{2-(acridine-9-carboxamide)acetyl}prolinamide]",274 nm,450 nm
"CC(=O)N1CC(NC(=O)CNC(=O)c2c3ccccc3nc3c2[nH]c2ccccc23)C[C@H]1C(=O)N1CC(NC(=O)CNC(=O)c2c3ccccc3nc3c2[nH]c2ccccc23)C[C@H]1C(N)=O (stereo partly shown) [Example 53, N^4-Acetyl-4-amino-{2-(10H-indolo[3,2-b]quinoline-11-carboxamide)acetyl}prolinyl-4-amino-{2-(10H-indolo[3,2-b]quinoline-11-carboxamide)acetyl}prolinamide]",348 nm,–
"CC(=O)NC1CC(C(=O)NC2CC(C(N)=O)N(C(=O)CNC(=O)c3c4ccccc4nc4ccccc34)C2)N(C(=O)CNC(=O)c2c3ccccc3nc3c2[nH]c2ccccc23)C1 (stereo not shown) [Example 54, 10H-Indolo[3,2-b]quinoline-11-carboxylic acid {2-[4-acetylamino-2-(1-{2-[(acridine-9-carbonyl)-amino]-acetyl}-5-carbamoyl-pyrrolidin-3-ylcarbamoyl)-pyrrolidin-1-yl]-2-oxo-ethyl}-amide]",273 nm,498 nm
"CC(=O)NC1CC(C(=O)NC2CC(C(N)=O)N(C(=O)CNC(=O)c3c4ccccc4nc4c3[nH]c3ccccc34)C2)N(C(=O)CNC(=O)c2c3ccccc3nc3ccccc23)C1 (stereo not shown) [Example 55, 10H-Indolo[3,2-b]quinoline-11-carboxylic acid (2-{4-[4(4-acetylamino-1-{2-[(acridine-9-carbonyl)-amino]-acetyl}-pyrrolidine-2-carbonyl)-amino]-2-carbamoyl-pyrrolidin-1-yl}-2-oxo-ethyl)-amide]",308 nm,500 nm
"CC(=O)NC1CC(C(=O)NC2CC(C(=O)NC3CC(C(N)=O)N(C(=O)CNC(=O)c4c5ccccc5nc5ccccc45)C3)N(C(=O)CNC(=O)c3c4ccccc4nc4ccccc34)C2)N(C(=O)CNC(=O)c2c3ccccc3nc3ccccc23)C1 (stereo not shown) [Example 56, N^4-Acetyl-4-amino-{2-(acridine-9-carboxamide)acetyl}prolinyl-4-amino-{2-(acridine-9-carboxamide)acetyl}prolinyl-4-amino-{2-(acridine-9-carboxamide)acetyl}prolinamide]",275 nm,440 nm
